The numbers were not newly measured in US20180214453A1, “RIVAROXABAN PHARMACEUTICAL COMPOSITIONS” (INTERQUIM, S.A., priority 2015, published 2018), which cites them from elsewhere.

The structures appear in SMILES notation.

The conditions of data set [1]: according to WO05060940 A2, practically insoluble.
The conditions of data set [2]: CHMP assessment report for Xarelto, slightly soluble.

Turning to `O=C(NC[C@H]1CN(c2ccc(N3CCOCC3=O)cc2)C(=O)O1)c1ccc(Cl)s1` [Rivaroxaban, 5-chloro-N-({(5S)-2-oxo-3-[4-(3-oxomorpholin-4-yl)phenyl]-1,3-oxazolidin-5-yl}methyl)thiophene-2-carboxamide], the solubility in water result in data set [1] was “about 7 mg/L”. In addition, the “solubility in organic solvents” value in data set [2] was 1000 to 10000 µg/mL.
